Changes are numbered by the printed parent chain.

Results on five molecules are retold here after PMC11681614, “A crucial active site network of titratable residues guides catalysis and NAD ^+ binding in human succinic semialdehyde dehydrogenase” (Protein Science : A Publication of the Protein Society, 2024).

In data set [1] the target is T1, hSSADH (human succinic semialdehyde dehydrogenase) (Homo sapiens, UniProt P51649).
T1 construct: gene ALDH5A1; purified recombinant homotetramer, expressed and purified as in Didiasova et al. 2024
T1 sequence (P51649 48-535): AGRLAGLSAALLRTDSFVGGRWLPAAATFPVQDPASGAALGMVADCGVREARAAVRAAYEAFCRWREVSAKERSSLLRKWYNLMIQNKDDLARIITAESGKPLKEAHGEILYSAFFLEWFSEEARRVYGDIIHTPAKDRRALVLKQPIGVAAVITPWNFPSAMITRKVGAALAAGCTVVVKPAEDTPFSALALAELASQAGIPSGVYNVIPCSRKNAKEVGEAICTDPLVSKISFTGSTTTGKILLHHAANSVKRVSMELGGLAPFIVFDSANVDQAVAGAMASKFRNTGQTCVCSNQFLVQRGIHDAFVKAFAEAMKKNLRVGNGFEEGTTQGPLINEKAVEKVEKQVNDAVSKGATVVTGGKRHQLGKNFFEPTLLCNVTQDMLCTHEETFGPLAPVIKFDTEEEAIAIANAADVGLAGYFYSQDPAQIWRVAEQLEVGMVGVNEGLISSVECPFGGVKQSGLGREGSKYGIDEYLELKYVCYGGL
In words: product inhibition, NADH […], replots of slopes and intercepts. Type of data set: biochemical.

The target of data set [2] is T1, hSSADH (human succinic semialdehyde dehydrogenase). The experiment in a line: intrinsic fluorescence quenching (ex […] nm, em […] nm), hyperbolic fit. Type of data set: binding.
Data set [3] has as its target T2, hSSADH (human succinic semialdehyde dehydrogenase) (Homo sapiens, UniProt P51649, K214A).
T2 construct: gene ALDH5A1; purified recombinant homotetramer, expressed and purified as in Didiasova et al. 2024
T2 sequence (P51649 48-535 K214A): T1 sequence (P51649 48-535) with K167A
The description is as above. Type of data set: binding. The conditions noted are these: read-out: K DNAD+.

Data set [4] addresses T3, hSSADH (human succinic semialdehyde dehydrogenase) (Homo sapiens, UniProt P51649, E306Q).
T3 construct: gene ALDH5A1; purified recombinant homotetramer, expressed and purified as in Didiasova et al. 2024
T3 sequence (P51649 48-535 E306Q): T1 sequence (P51649 48-535) with E259Q
Described as above. Type of data set: binding. The conditions noted are these: read-out: K DNAD+.

The target in data set [5] is T1, hSSADH (human succinic semialdehyde dehydrogenase). In words: initial rates, NADH fluorescence (ex […], em […] nm), global fit to Equation ([…]). Type of data set: biochemical. The conditions noted are these: partial non-competitive substrate inhibition, co-substrate NAD+, pH 8, potassium phosphate.
Substrate in data set [6]: NC(=O)c1ccc[n+]([C@@H]2O[C@H](COP(=O)([O-])OP(=O)(O)OC[C@H]3O[C@@H](n4cnc5c(N)ncnc54)[C@H](O)[C@@H]3O)[C@@H](O)[C@H]2O)c1
In words: purified protein. The conditions noted are these: co-substrate SSA, pH 8, 100 mM potassium phosphate, 14°C, ordered bi-bi, partial substrate inhibition fit, varied: cofactor. Type of data set: biochemical, Homo sapiens.

Substrate in data set [7]: O=CCCC(=O)O
In words: purified protein. Type of data set: biochemical, Homo sapiens. The conditions noted are these: co-substrate NAD+, pH 8, 100 mM potassium phosphate, 14°C, ordered bi-bi, partial substrate inhibition fit.

Data set [8] concerns the molecule itself. In words: not stated; purified recombinant hSSADH; the experiment on the oligomeric state is in Data S1 (not shown).

On to `NC(=O)C1=CN([C@@H]2O[C@H](COP(=O)(O)OP(=O)(O)OC[C@H]3O[C@@H](n4cnc5c(N)ncnc54)[C@H](O)[C@@H]3O)[C@@H](O)[C@H]2O)C=CC1` [NADH], for which the affinity in data set [1], expressed as Ki, was 15 ± 2 µM.
Regarding `NC(=O)c1ccc[n+]([C@@H]2O[C@H](COP(=O)([O-])OP(=O)(O)OC[C@H]3O[C@@H](n4cnc5c(N)ncnc54)[C@H](O)[C@@H]3O)[C@@H](O)[C@H]2O)c1` [NAD^+], the Kd worked out at 4.5 ± 0.8 µM in data set [2], 2500 ± 200 nM in data set [3] and 4.3 ± 0.4 µM in data set [4].
With `O=CCCC(=O)O` [SSA], the “From Equation (5) (14°C)” value in data set [5] turned out to be 13 ± 3 µM.

B1: hSSADH (human succinic semialdehyde dehydrogenase) (Homo sapiens) (protein)
chain: T1 sequence (P51649 48-535)
notes: purified recombinant homotetramer, expressed and purified as in Didiasova et al. 2024
As for B1, in data set [6], the Michaelis constant (Km) (as a rule, the substrate concentration at which the rate is half of its maximum) was 31 ± 5 µM and the kcat (usually the maximal rate divided by the concentration of active sites) is 26 ± 2 s⁻¹. Also, in data set [7], the Km turned out to be 1.2 ± 0.2 µM and the kcat stood at 26 ± 2 s⁻¹.

B2: Human succinic semialdehyde dehydrogenase (enzyme)
chain: GRLAGLSAALLRTDSFVGGRWLPAAATFPVQDPASGAALGMVADCGVREARAAVRAAYEAFCRWREVSAKERSSLLRKWYNLMIQNKDDLARIITAESGKPLKEAHGEILYSAFFLEWFSEEARRVYGDIIHTPAKDRRALVLKQPIGVAAVITPWNFPSAMITRKVGAALAAGCTVVVKPAEDTPFSALALAELASQAGIPSGVYNVIPCSRKNAKEVGEAICTDPLVSKISFTGSTTTGKILLHHAANSVKRVSMELGGLAPFIVFDSANVDQAVAGAMASKFRNTGQTCVCSNQFLVQRGIHDAFVKAFAEAMKKNLRVGNGFEEGTTQGPLINEKAVEKVEKQVNDAVSKGATVVTGGKRHQLGKNFFEPTLLCNVTQDMLCTHEETFGPLAPVIKFDTEEEAIAIANAADVGLAGYFYSQDPAQIWRVAEQLEVGMVGVNEGLISSVECPFGGVKQSGLGREGSKYGIDEYLELKYVCYGGL
notes: Human succinic semialdehyde dehydrogenase (EC 1.2.1.24), gene ALDH5A1; this is surmised; also called hSSADH; WT hSSADH; source: recombinant, expressed and purified as described (Didiasova et al. 2024)
Take B2: the stoichiometry N – broadly, the number of molecules, sites or subunits per partner or assembly – in data set [8] is 4.
